IC50 and EC50 data for 21 molecules are collected here from patent US9809598B2 (Merck Patent GmbH, priority 2014, dated 2017).

A word on the IC50: it is the concentration at which inhibition is half-maximal. The EC50 is the concentration needed to bring the measured effect to its halfway point.

Assay [1] addresses T1, PARP-1 (Homo sapiens, UniProt P09874).
T1 construct: purchased Enzo Life Sciences GmbH, Lörrach, Germany
Put plainly: PARP-1 autoparsylation assay (HTRF). Format: biochemical. As to conditions: His-tagged Parp-1, autoparsylation HTRF. In a few lines: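 His-tagged enzyme auto-modifies itself using biotinylated NAD/NAD; product detected by TR-FRET between cryptate anti-His antibody and Xlent-streptavidin, as emission ratio.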
A general note: TR-FRET usually uses a lanthanide donor and a delayed reading to cut background.

Assay [2] concerns the target T2, TNKS1 (Homo sapiens, UniProt O95271).
T2 construct: GST-tagged Tnks-1 (1023-1327 aa, prepared in-house); made in house
Put plainly: TNKS1 activity ELISA (autoparsylation assay). It is filed as biochemical. As to conditions: GST-tagged Tnks-1 (1023-1327 aa). The essentials: (§1)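 GST-tagged TNKS1 or TNKS2 captured on glutathione plates and allowed to auto-PARsylate with biotinylated NAD with or without compound. Biotin-ADP-ribosylated enzyme detected by streptavidin-HRP and luminescence; IC50 relative to inhibitor-free reaction.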
A general note: An ELISA detects its analyte on a solid surface through an enzyme-linked reagent.

Assay [3] has as its target T3, TNKS2 (Homo sapiens, UniProt Q9H2K2).
T3 construct: GST-tagged Tnks-2 (873-1166 aa, prepared in-house); made in house
Put plainly: TNKS2 activity ELISA (autoparsylation assay). It is filed as biochemical. As to conditions: GST-tagged Tnks-2 (873-1166 aa); read-out: IC50 [M] TNKS2 ELISA. In a few lines:
as §1

Assay [4] deals with Tankyrases. As to conditions: read-out: EC50 [M] TNKS cellular assay; DLD1 cells, 24 hours, Axin2 increase.

T2 sequence (O95271 1023-1327): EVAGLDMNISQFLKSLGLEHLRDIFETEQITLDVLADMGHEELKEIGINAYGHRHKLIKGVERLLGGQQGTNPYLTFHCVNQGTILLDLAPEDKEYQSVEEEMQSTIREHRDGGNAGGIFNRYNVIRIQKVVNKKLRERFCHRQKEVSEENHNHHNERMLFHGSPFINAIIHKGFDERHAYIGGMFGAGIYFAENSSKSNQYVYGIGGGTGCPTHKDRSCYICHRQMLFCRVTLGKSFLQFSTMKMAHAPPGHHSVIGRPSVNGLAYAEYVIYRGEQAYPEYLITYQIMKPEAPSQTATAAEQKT
T1 sequence (P09874 whole entry): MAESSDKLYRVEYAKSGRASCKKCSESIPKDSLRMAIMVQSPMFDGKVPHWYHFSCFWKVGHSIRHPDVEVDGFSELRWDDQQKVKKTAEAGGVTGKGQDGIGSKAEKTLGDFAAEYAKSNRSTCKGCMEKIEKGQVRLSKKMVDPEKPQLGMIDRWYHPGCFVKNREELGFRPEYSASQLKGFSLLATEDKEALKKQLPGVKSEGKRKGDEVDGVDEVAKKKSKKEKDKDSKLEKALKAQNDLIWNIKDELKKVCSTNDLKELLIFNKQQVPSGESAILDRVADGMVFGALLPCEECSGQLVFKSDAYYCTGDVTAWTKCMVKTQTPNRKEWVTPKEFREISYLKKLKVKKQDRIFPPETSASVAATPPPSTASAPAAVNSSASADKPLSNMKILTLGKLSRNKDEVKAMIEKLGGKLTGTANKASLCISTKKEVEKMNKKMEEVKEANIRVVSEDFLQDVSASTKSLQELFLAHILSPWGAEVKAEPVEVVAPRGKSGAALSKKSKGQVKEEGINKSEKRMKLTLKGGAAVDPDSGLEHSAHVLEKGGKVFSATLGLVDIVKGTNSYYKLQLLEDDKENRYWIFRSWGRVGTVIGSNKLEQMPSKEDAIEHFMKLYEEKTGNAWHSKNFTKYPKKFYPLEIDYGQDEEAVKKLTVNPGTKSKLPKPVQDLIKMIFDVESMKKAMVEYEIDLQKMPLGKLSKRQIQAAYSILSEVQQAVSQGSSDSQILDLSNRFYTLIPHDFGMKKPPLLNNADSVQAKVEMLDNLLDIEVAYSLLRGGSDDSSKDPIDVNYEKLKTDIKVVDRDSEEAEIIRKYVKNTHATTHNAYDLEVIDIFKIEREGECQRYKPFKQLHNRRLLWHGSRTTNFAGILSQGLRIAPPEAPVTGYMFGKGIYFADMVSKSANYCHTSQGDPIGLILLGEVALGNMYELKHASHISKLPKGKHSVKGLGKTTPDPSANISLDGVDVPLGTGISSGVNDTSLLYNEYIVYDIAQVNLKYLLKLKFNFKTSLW
T3 sequence (Q9H2K2 873-1166): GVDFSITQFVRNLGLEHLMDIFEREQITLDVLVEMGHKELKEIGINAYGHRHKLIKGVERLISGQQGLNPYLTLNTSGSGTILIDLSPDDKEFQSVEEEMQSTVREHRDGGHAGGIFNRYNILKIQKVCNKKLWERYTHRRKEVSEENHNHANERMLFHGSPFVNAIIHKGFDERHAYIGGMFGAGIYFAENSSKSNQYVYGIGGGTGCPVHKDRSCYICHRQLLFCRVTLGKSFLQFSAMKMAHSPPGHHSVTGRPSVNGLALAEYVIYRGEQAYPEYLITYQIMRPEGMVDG

As to `O=C(c1ccc(F)cc1)C1CCN(C(=O)CCCc2nc3c(c(=O)[nH]2)COCC3)CC1` [Compound C198, 2-{4-[4-(4-Fluoro-benzoyl)-piperidin-1-yl]-4-oxo-butyl}-3,5,7,8-tetrahydro-pyrano[4,3-d]pyrimidin-4-one], the IC50 was found to be 5200 nM in assay [1], 12 nM in assay [2] and 4e-09 M in assay [3]. In assay [4], the EC50 stood at 7.5e-08 M.

`Cn1cc(C(=O)C2CCN(C(=O)CCCc3nc4c(c(=O)[nH]3)CCCC4)CC2)cn1` [Compound C230, 2-{4-[4-(1-Methyl-1H-pyrazole-4-carbonyl)-piperidin-1-yl]-4-oxo-butyl}-5,6,7,8-tetrahydro-3H-quinazolin-4-one]: the IC50 in assay [1] worked out at 1800 nM; in assay [2] it was 5.1 nM; in assay [3], 2.1e-09 M. Also, in assay [4], the EC50 was 4.7e-08 M.

`COc1ccc(C(=O)C2CCN(C(=O)CCCc3nc4c(ccn4C)c(=O)[nH]3)CC2)cn1` [Compound C181, 2-{4-[4-(6-Methoxy-pyridine-3-carbonyl)-piperidin-1-yl]-4-oxo-butyl}-7-methyl-3,7-dihydro-pyrrolo[2,3-d]pyrimidin-4-one]: the IC50 was 2300 nM in assay [1], 0.65 nM in assay [2] and 2.4e-10 M in assay [3]. Moreover, the EC50 in assay [4] worked out at 7.3e-09 M.

`Cc1cc2c(=O)[nH]c(CCCC(=O)N3CCC(c4cnc(N)c(-c5ncccn5)c4)CC3)nn2c1` [Compound C161, 2-[4-(6-Amino-5-pyrimidin-2-yl-3′,4′,5′,6′-tetrahydro-2′H-[3,4′]bipyridinyl-1′-yl)-4-oxo-butyl]-6-methyl-3H-pyrrolo[2,1-f][1,2,4]triazin-4-one]: the IC50 came to 4300 nM in assay [1], 0.62 nM in assay [2] and 2.9e-09 M in assay [3]. Moreover, in assay [4], the EC50 was determined as 9.7e-09 M.

For the molecule `Cc1scc2c(=O)[nH]c(CCCC(=O)N3CCC(C(=O)c4cnn(C(C)C)c4)CC3)nc12` [Compound C226, 2-{4-[4-(1-Isopropyl-1H-pyrazole-4-carbonyl)-piperidin-1-yl]-4-oxo-butyl}-7-methyl-3H-thieno[3,4-d]pyrimidin-4-one], the IC50 worked out at 1800 nM in assay [1], 1.6 nM in assay [2] and 9.5e-10 M in assay [3]. Also, the EC50 in assay [4] turned out to be 2.5e-08 M.

For the molecule `Cn1ncc2c(=O)[nH]c(CCCC(=O)N3CCC(C(=O)c4ccc(F)c(F)c4)CC3)nc21` [Compound C246, 6-{4-[4-(3,4-Difluoro-benzoyl)-piperidin-1-yl]-4-oxo-butyl}-1-methyl-1,5-dihydro-pyrazolo[3,4-d]pyrimidin-4-one], the results for the IC50 in assay [1], in assay [2] and in assay [3] were 13000 nM, 0.63 nM and 3.2e-10 M, respectively. In assay [4], the EC50 worked out at 2.5e-08 M.

Regarding `COc1ccc(C(=O)C2CCN(C(=O)CCCc3nc4c(ccn4C)c(=O)[nH]3)CC2)cc1F` [Compound C180, 2-{4-[4-(3-Fluoro-4-methoxy-benzoyl)-piperidin-1-yl]-4-oxo-butyl}-7-methyl-3,7-dihydro-pyrrolo[2,3-d]pyrimidin-4-one], the IC50 in assay [1] is 1900 nM; in assay [2], 0.18 nM; in assay [3], under 1e-10 M. In addition, the EC50 in assay [4] came to 3.3e-09 M.

With `Cn1cc(C(=O)C2CCN(C(=O)CCCc3cn4cccc4c(=O)[nH]3)CC2)cn1` [Compound C22, 3-{4-[4-(1-Methyl-1H-pyrazole-4-carbonyl)-piperidin-1-yl]-4-oxo-butyl}-2H-pyrrolo[1,2-a]pyrazin-1-one], the IC50 in assay [1] was 5200 nM; in assay [2] it was 0.25 nM; in assay [3], 3e-10 M. Moreover, in assay [4], the EC50 was found to be 4.5e-09 M.

On to `O=C(c1ccc(F)cc1)C1CCN(C(=O)CCCc2nn3cc(F)cc3c(=O)[nH]2)CC1` [Compound C175, 6-Fluoro-2-{4-[4-(4-fluoro-benzoyl)-piperidin-1-yl]-4-oxo-butyl}-3H-pyrrolo[2,1-f][1,2,4]triazin-4-one], for which the IC50 in assay [1] is 4900 nM; in assay [2] it was 0.47 nM; in assay [3], 8.1e-10 M. Further, the EC50 in assay [4] turned out to be 3.7e-08 M.

As to `Cc1scc2c(=O)[nH]c(CCCC(=O)N3CCC(C(=O)c4ccc(C(C)(C)O)cc4)CC3)nc12` [Compound C121, 2-(4-{4-[4-(1-Hydroxy-1-methyl-ethyl)-benzoyl]-piperidin-1-yl}-4-oxo-butyl)-7-methyl-3H-thieno[3,4-d]pyrimidin-4-one], the IC50 in assay [1] worked out at 3100 nM; in assay [2] it was 4.7 nM; in assay [3], 2.4e-09 M. For the same molecule, the EC50 in assay [4] stood at 6.8e-08 M.

Consider `Cn1ccc2c(=O)[nH]c(CCCC(=O)N3CCC(c4cnc(N)c(-c5ncccn5)c4)CC3)nc21` [Compound C183, 2-[4-(6-Amino-5-pyrimidin-2-yl-3′,4′,5′,6′-tetrahydro-2′H-[3,4′]bipyridinyl-1′-yl)-4-oxo-butyl]-7-methyl-3,7-dihydro-pyrrolo[2,3-d]pyrimidin-4-one], for which the IC50 was found to be 1600 nM in assay [1], 0.54 nM in assay [2] and 2.9e-10 M in assay [3]. Also, in assay [4], the EC50 was 1e-08 M.

With `O=C(CCCc1cn2cccc2c(=O)[nH]1)N1CCC(c2nnc(-c3ccccc3)o2)CC1` [Compound C6, 3-{4-Oxo-4-[4-(5-phenyl-[1,3,4]oxadiazol-2-yl)-piperidin-1-yl]-butyl}-2H-pyrrolo[1,2-a]pyrazin-1-one], the IC50 in assay [1] is 3700 nM; in assay [2], 1.9 nM; in assay [3] it was 1.3e-09 M. Moreover, the EC50 in assay [4] worked out at 2.8e-08 M.

As to `Cn1ccc2c(=O)[nH]c(CCCC(=O)N3CCC(c4nnc(-c5ccccc5)o4)CC3)nc21` [Compound C184, 7-Methyl-2-{4-oxo-4-[4-(5-phenyl-[1,3,4]oxadiazol-2-yl)-piperidin-1-yl]-butyl}-3,7-dihydro-pyrrolo[2,3-d]pyrimidin-4-one], the IC50 was determined as 1900 nM in assay [1], 4.7 nM in assay [2] and 2.5e-09 M in assay [3]. Also, the EC50 in assay [4] worked out at 4.7e-07 M.

With `CC(C)n1cc(C(=O)C2CCN(C(=O)CCCc3nn4cc(F)cc4c(=O)[nH]3)CC2)cn1` [Compound C221, 6-Fluoro-2-{4-[4-(1-isopropyl-1H-pyrazole-4-carbonyl)-piperidin-1-yl]-4-oxo-butyl}-3H-pyrrolo[2,1-f][1,2,4]triazin-4-one], the IC50 was found to be 1900 nM in assay [1], 2.1 nM in assay [2] and 2e-09 M in assay [3]. In addition, in assay [4], the EC50 was 2.7e-08 M.

With `Cc1csc2c(=O)[nH]c(CCCC(=O)N3CCC(C(=O)c4cnn(C)c4)CC3)nc12` [Compound C135, 7-Methyl-2-{4-[4-(1-methyl-1H-pyrazole-4-carbonyl)-piperidin-1-yl]-4-oxo-butyl}-3H-thieno[3,2-d]pyrimidin-4-one], the IC50 in assay [1] was found to be 420 nM; in assay [2], 0.49 nM; in assay [3], 4.7e-10 M. The EC50 in assay [4] was 3.9e-08 M.

As for `CCn1cc(C(=O)C2CCN(C(=O)CCCc3nc4c(cnn4C)c(=O)[nH]3)CC2)cn1` [Compound C213, 6-{4-[4-(1-Ethyl-1H-pyrazole-4-carbonyl)-piperidin-1-yl]-4-oxo-butyl}-1-methyl-1,5-dihydro-pyrazolo[3,4-d]pyrimidin-4-one], the IC50 amounted to 11000 nM in assay [1], 1.2 nM in assay [2] and 5.2e-10 M in assay [3]. Moreover, the EC50 in assay [4] worked out at 8.6e-08 M.

`Cc1csc2c(=O)[nH]c(CCCC(=O)N3CCC(C(=O)c4ccc(F)cc4)CC3)nc12` [Compound C131, 2-{4-[4-(4-Fluorobenzoyl)-1-piperidyl]-4-oxo-butyl}-7-methyl-3H-thieno[3,2-d]pyrimidin-4-one]: the IC50 turned out to be 270 nM in assay [1], 0.36 nM in assay [2] and 2.1e-10 M in assay [3]. Also, in assay [4], the EC50 was 1.6e-08 M.

As for `N#Cc1ccc(OC2CCN(C(=O)CCCc3nn4cccc4c(=O)[nH]3)CC2)cc1` [Compound C141, 4-{1-[4-(4-Oxo-3,4-dihydro-pyrrolo[2,1-f][1,2,4]triazin-2-yl)-butyryl]-piperidin-4-yloxy}-benzonitrile], the IC50 in assay [1] was determined as 2600 nM; in assay [2], 100 nM; in assay [3], 6.5e-08 M. In addition, the EC50 in assay [4] stood at 6.8e-07 M.

`COc1ccc(C(=O)C2CCN(C(=O)CCCc3nn4cccc4c(=O)[nH]3)CC2)cc1F` [Compound C136, 2-{4-[4-(3-Fluoro-4-methoxy-benzoyl)-piperidin-1-yl]-4-oxo-butyl}-3H-pyrrolo[2,1-f][1,2,4]triazin-4-one]: the IC50 came out at 3100 nM in assay [1], 0.25 nM in assay [2] and 2.1e-10 M in assay [3]. Moreover, the EC50 in assay [4] was determined as 3.6e-09 M.

Consider `COc1ccc(C(=O)C2CCN(C(=O)CCCc3nn4cc(C)cc4c(=O)[nH]3)CC2)cc1` [Compound C38, 2-{4-[4-(4-Methoxy-benzoyl)-piperidin-1-yl]-4-oxo-butyl}-6-methyl-3H-pyrrolo[2,1-f][1,2,4]triazin-4-one], for which the values for the IC50 in assay [1], in assay [2] and in assay [3] were 2400 nM, 0.28 nM and 1.1e-10 M, respectively. Moreover, in assay [4], the EC50 stood at 5.4e-09 M.

For `COc1ccc(C(=O)C2CCN(C(=O)CCCc3nc4c(C)scc4c(=O)[nH]3)CC2)cc1` [Compound C34, 2-{4-[4-(4-Methoxy-benzoyl)-piperidin-1-yl]-4-oxo-butyl}-7-methyl-3H-thieno[3,4-d]pyrimidin-4-one], the IC50 in assay [1] stood at 1100 nM; in assay [2], 0.54 nM; in assay [3], 3.3e-10 M. Further, the EC50 in assay [4] was 4.8e-09 M.
